# Assay results reported in patent US20150094294A1, “COMPOUNDS AND METHODS FOR TREATING MALARIA” (Cellceutix Corporation, priority 2012, published 2015).
# pEC50, pIC50: −log10 of the molar value.
# Legend:
# Type in all cases: cell-based
# [1] = Cytotoxicity against HepG2 cells; conditions: human, HepG2 cells; read-out: Cytotoxicity HepG2 EC50
# [2] = Cytotoxicity against 3T3 cells; conditions: mouse, 3T3 cells; read-out: Cytotoxicity 3T3 EC50
# in vitro = assay: in vitro
# [3] = test system: P. falciparum 3D7 (chloroquine-sensitive); assay: Anti-malarial activity, P. falciparum 3D7 culture, 72 hour, DNA content by flow cytometry; conditions: Plasmodium falciparum, 3D7, 72 h, synchronized ring-stage parasites
# Experimental: Numerous compounds were screened in cultures of the malaria parasite P. falciparum 3D7 (chloroquine-sensitive) and DD2 (chloroquine-resistant). The compounds were also screened for toxixcity against 3T3 cells, HepG2 cells, and in a hemolysis assay. In brief, P. falciparum parasites were cultured in RPMI 1640 (Invitrogen) supplemented with Albumax II (Invitrogen). For synchronization, schizont stage parasites were magnet purified using a SuperMACS™ II Cell Separation Unit (Miltenyi Biotech). For IC50 determinations, synchronized ring-stage parasites were plated at 0.5% parasitemia and 8% hematocrit in 96-well plates at a total volume of 50 μL. Serial dilutions of 2× concentration of the respective compound, ranging from 2.5 μM to 20 nM, were added to the wells to bring the total volume up to 100 μL and 4% hematocrit. Compounds were assayed for a 72 hour period, after which the cultures were fixed with a solution of 4% paraformaldehyde and 0.08% glutaraldhyde in PBS. The cells were then permeabilized with 0.25% Triton X-100, and SYTOX Green Nucleic Acid Stain (Invitrogen) in PBS was added to a final concentration of 5 μM. DNA content, as an indicator of parasitemia, was analyzed on an Accuri C6 Flow Cytometer with C-Sampler. IC50 curves were generated using GraphPad Prism (GraphPad Software).
SMILES,EC50 (in vitro),pIC50 [3],pEC50 [1],pEC50 [2]
N=C(N)N1CCN(c2ccc(-c3cccc(-c4ccc(N5CCN(C(=N)N)CC5)nc4)c3)cn2)CC1 [Compound 258],545 µg/mL,7.24,3.52,3.78
Cn1c(-c2ccc(N3CCN(C(=N)N)CC3)cc2)cnc1-c1ccc(N2CCN(C(=N)N)CC2)cc1 [Compound 261],> 1000 µg/mL,7.11,3.03,< 3.00
N=C(N)NCCSc1ccc(NC(=O)Nc2cccc(CCNC(=N)N)c2)cc1C(F)(F)F [Compound 270],317 µg/mL,6.97,3.15,3.40
NCCCOc1cc(OCCCN)cc(-c2ccc3c(c2)c2cc(-c4cc(OCCCN)cc(OCCCN)c4)ccc2n3CCCN)c1 [Compound 279],> 1000 µg/mL,6.11,3.05,3.36
CC1(C)c2cc(-c3cccc(CCNC(=N)N)c3)ccc2-c2ccc(-c3cccc(CCNC(=N)N)c3)cc21 [Compound 284],2 µg/mL,< 7.00,4.55,5.22
N#Cc1cccc(C(=O)Nc2cc(NC(=O)c3cc(C(=O)Nc4cc(NC(=O)c5cccc(C#N)c5)cc(C(F)(F)F)c4)c(OCCN)cc3OCCN)cc(C(F)(F)F)c2)c1 [Compound 299],251 µg/mL,< 7.00,3.04,3.04
COc1cc(SCCN)c(C(F)(F)F)cc1NC(=O)c1cc(C(=O)Nc2cc(C(F)(F)F)c(SCCN)cc2OC)ncn1 [Compound 301],< 1 µg/mL,7.54,3.11,3.15
COc1cc(SCCNC(=N)N)c(C(F)(F)F)cc1NC(=O)c1cc(C(=O)Nc2cc(C(F)(F)F)c(SCCNC(=N)N)cc2OC)ncn1 [Compound 302],4 µg/mL,6.48,< 3.00,3.16
NCCSc1c(NC(=O)c2ccccc2)cc(C(F)(F)F)cc1NC(=O)c1cc(C(=O)Nc2cc(C(F)(F)F)cc(NC(=O)c3ccccc3)c2SCCN)ncn1 [Compound 304],3 µg/mL,7.16,3.03,3.03
NCCSc1c(NC(=O)c2cccc(F)c2)cc(C(F)(F)F)cc1NC(=O)c1cc(C(=O)Nc2cc(C(F)(F)F)cc(NC(=O)c3cccc(F)c3)c2SCCN)ncn1 [Compound 305],223 µg/mL,7.11,3.04,3.05
N#Cc1ccc(C(=O)Nc2cc(C(F)(F)F)cc(NC(=O)c3cc(C(=O)Nc4cc(C(F)(F)F)cc(NC(=O)c5ccc(C#N)cc5)c4SCCN)ncn3)c2SCCN)cc1 [Compound 307],757 µg/mL,7.39,3.05,3.07
COc1ccc(C(=O)Nc2cc(C(F)(F)F)cc(NC(=O)c3cc(C(=O)Nc4cc(C(F)(F)F)cc(NC(=O)c5ccc(OC)cc5)c4SCCN)ncn3)c2SCCN)cc1 [Compound 310],81 µg/mL,7.08,3.05,< 3.00
c1cc(N2CCNCC2)ccc1-c1ccc(N2CCNCC2)cc1 [Compound 317],> 1000 µg/mL,< 7.00,3.30,3.26

# Now from value to compound, other results behind:
EC50 (in vitro),pIC50 [3],SMILES,pEC50 [1],pEC50 [2]
287 µg/mL,< 7.00,Cn1c(-c2ccc(N3CCNCC3)cc2)cnc1-c1ccc(N2CCNCC2)cc1 [Compound 259],< 3.00,< 3.00
65 µg/mL,5.95,COc1cc(SCCN)c(C(F)(F)F)cc1NC(=O)Nc1ccc(SCCNC(=N)N)c(C(F)(F)F)c1 [Compound 276],3.81,4.38
62 µg/mL,7.47,CC(=O)Nc1cc(C(F)(F)F)cc(NC(=O)c2cc(C(=O)Nc3cc(C(F)(F)F)cc(NC(C)=O)c3SCCN)ncn2)c1SCCN [Compound 303],< 3.00,3.05
793 µg/mL,< 7.00,NCCSc1c(NC(=O)c2cccc(Br)c2)cc(C(F)(F)F)cc1NC(=O)c1cc(C(=O)Nc2cc(C(F)(F)F)cc(NC(=O)c3cccc(Br)c3)c2SCCN)ncn1 [Compound 306],3.09,3.09
2 µg/mL,< 7.00,N#Cc1ccc(C(=O)Nc2cc(C(F)(F)F)cc(NC(=O)c3cc(C(=O)Nc4cc(C(F)(F)F)cc(N)c4SCCN)ncn3)c2SCCN)cc1 [Compound 308],4.47,4.66
> 1000 µg/mL,< 7.00,NCCCc1ccc(-c2ccc(CCCN)cc2)cc1 [Compound 318],< 3.00,3.20
52 µg/mL,< 7.00,c1cc(-c2ccc(N3CCNCC3)nc2)cc(-c2cccc(-c3ccc(N4CCNCC4)nc3)c2)c1 [Compound 319],4.08,4.24
